The record followed here is US11155520B2, “Picolinamides as fungicides” (Dow AgroSciences LLC, priority 2018, dated 2021).

What all share (format): in vivo
Test [1] relates to Phakopsora pachyrhizi. In words: Fungicidal activity: Asian soybean rust (PHAKPA). To be noted: High volume, 25 ppm; for PHAKPA 1DP disease control: 1 Day Protectant; for PHAKPA 3DC disease control: 3 Day Curative. How it is done:
Technical grades of materials were dissolved in acetone, which were then mixed with nine volumes of water containing 0.011% Tween 20. The fungicide solutions were applied onto soybean seedlings using an automated booth sprayer to run-off. All sprayed plants were allowed to air dry prior to further handling.
Soybean plants (variety Williams 82) were grown in soil-less Metro mix, with one plant per pot. Two week old seedlings were used for testing. Plants were inoculated either 3 days prior to or 1 day after fungicide treatments. Plants were incubated for 24 h in a dark dew room at 22° C. and 100% relative humidity then transferred to a growth room at 23° C. for disease to develop. Disease severity was assessed on the sprayed leaves.

The subject of test [2] is Alternaria solani. In words: Fungicidal activity: tomato early blight (ALTESO). To be noted: 1DP test at 100 ppm. The method, then: Technical grades of materials were dissolved in acetone, which were then mixed with nine volumes of water containing 110 ppm Triton X-100. The fungicide solutions were applied onto wheat seedlings using an automated booth sprayer to run-off. All sprayed plants were allowed to air dry prior to further handling. All fungicides were evaluated using the aforementioned method for their activity vs. all target diseases, unless stated otherwise. Wheat leaf blotch and brown rust activity were also evaluated using track spray applications, in which case the fungicides were formulated as EC formulations, containing 0.1% Trycol 5941 in the spray solutions. Tomato plants (variety Outdoor Girl) were propagated in soil-less Metro mix, with each pot having one plant, and used when 12 to 14 days old. Test plants were inoculated with an aqueous spore suspension of Alternaria solani 24 hr after fungicide treatments. After inoculation the plants were kept in 100% relative humidity (one day in a dark dew chamber followed by two to three days in a lighted dew chamber at 20° C.) to permit spores to germinate and infect the leaf. The plants were then transferred to a growth room at 22° C. for disease to develop. Fungicide formulation, application and disease assessment on the sprayed leaves followed the procedures as described in the Example A.

Test [3] has as its system Cercospora beticola. In words: Fungicidal activity: leaf spot of sugar beets (CERCBE). To be noted: 1DP test at 100 ppm, sugar beet. How it is done:
Technical grades of materials were dissolved in acetone, which were then mixed with nine volumes of water containing 110 ppm Triton X-100. The fungicide solutions were applied onto wheat seedlings using an automated booth sprayer to run-off. All sprayed plants were allowed to air dry prior to further handling. All fungicides were evaluated using the aforementioned method for their activity vs. all target diseases, unless stated otherwise. Wheat leaf blotch and brown rust activity were also evaluated using track spray applications, in which case the fungicides were formulated as EC formulations, containing 0.1% Trycol 5941 in the spray solutions. Sugar beet plants (variety HH88) were grown in soil-less Metro mix and trimmed regularly to maintain a uniform plant size prior to test. Plants were inoculated with a spore suspension 24 hr after fungicide treatments. Inoculated plants were kept in a dew chamber at 22° C. for 48 hr then incubated in a greenhouse set at 24° C. under a clear plastic hood with bottom ventilation until disease symptoms were fully expressed. Fungicide formulation, application and disease assessment on the sprayed leaves followed the procedures as described in the Example A.

Test [4] concerns Glomerella lagenarium; Anamorph: Colletotrichum lagenarium. In words: Fungicidal activity: cucumber anthracnose (COLLLA). To be noted: 1DP test at 100 ppm. The method, then:
Technical grades of materials were dissolved in acetone, which were then mixed with nine volumes of water containing 110 ppm Triton X-100. The fungicide solutions were applied onto wheat seedlings using an automated booth sprayer to run-off. All sprayed plants were allowed to air dry prior to further handling. All fungicides were evaluated using the aforementioned method for their activity vs. all target diseases, unless stated otherwise. Wheat leaf blotch and brown rust activity were also evaluated using track spray applications, in which case the fungicides were formulated as EC formulations, containing 0.1% Trycol 5941 in the spray solutions. Cucumber seedlings (variety Bush Pickle) were propagated in soil-less Metro mix, with each pot having one plant, and used in the test when 12 to 14 days old. Test plants were inoculated with an aqueous spore suspension of Colletotrichum lagenarium 24 hr after fungicide treatments. After inoculation the plants were kept in a dew room at 22° C. with 100% relative humidity for 48 hr to permit spores to germinate and infect the leaf. The plants were then transferred to a growth room set at 22° C. for disease to develop. Fungicide formulation, application and disease assessment on the sprayed leaves followed the procedures as described in the Example A.

Test [5] deals with Parastagonospora nodorum. The test is described as follows: Fungicidal activity: wheat glume blotch (LEPTNO). To be noted: 1DP test at 100 ppm. How it is done:
Technical grades of materials were dissolved in acetone, which were then mixed with nine volumes of water containing 110 ppm Triton X-100. The fungicide solutions were applied onto wheat seedlings using an automated booth sprayer to run-off. All sprayed plants were allowed to air dry prior to further handling. All fungicides were evaluated using the aforementioned method for their activity vs. all target diseases, unless stated otherwise. Wheat leaf blotch and brown rust activity were also evaluated using track spray applications, in which case the fungicides were formulated as EC formulations, containing 0.1% Trycol 5941 in the spray solutions. Wheat plants (variety Yuma) were grown from seed in a greenhouse in 50% mineral soil/50% soil-less Metro mix until the first leaf was fully emerged, with 7-10 seedlings per pot. These plants were inoculated with an aqueous spore suspension of Parastagonospora nodorum 24 hr after fungicide treatments. After inoculation the plants were kept in 100% relative humidity (one day in a dark dew chamber followed by two days in a lighted dew chamber at 20° C.) to permit spores to germinate and infect the leaf. The plants were then transferred to a greenhouse set at 20° C. for disease to develop. Fungicide formulation, application and disease assessment followed the procedures as described in the Example A.

Test [6] relates to Pseudoperonospora cubensis. In words: Fungicidal activity: cucumber downy mildew (PSPECU). To be noted: 1DP test at 100 ppm. The method, then:
Technical grades of materials were dissolved in acetone, which were then mixed with nine volumes of water containing 110 ppm Triton X-100. The fungicide solutions were applied onto wheat seedlings using an automated booth sprayer to run-off. All sprayed plants were allowed to air dry prior to further handling. All fungicides were evaluated using the aforementioned method for their activity vs. all target diseases, unless stated otherwise. Wheat leaf blotch and brown rust activity were also evaluated using track spray applications, in which case the fungicides were formulated as EC formulations, containing 0.1% Trycol 5941 in the spray solutions. Cucumber seedlings (variety Bush Pickle) were grown in soil-less Metro mix, with one plant per pot, and used in the test when 12 to 14 days old. Plants were inoculated with a spore suspension 24 hr following fungicide treatments. Test plants were inoculated with an aqueous spore suspension of Pseudoperonospora cubensis 24 hr after fungicide treatments. After inoculation the plants were kept in a dew room at 22° C. with 100% relative humidity for 24 hr to permit spores to germinate and infect the leaf. The plants were then transferred to a greenhouse set at 20° C. until disease was fully expressed. Fungicide formulation, application and disease assessment on the sprayed leaves followed the procedures as described in the Example A.

Test [7] concerns Magnaporthe grisea; Anamorph: Pyricularia oryzae. To be noted: 1DP test at 100 ppm, rice.
Test [8] has as its system Rhyncosporium secalis. In words: Fungicidal activity: barley scald (RHYNSE). To be noted: 1DP test at 100 ppm. How it is done: Technical grades of materials were dissolved in acetone, which were then mixed with nine volumes of water containing 110 ppm Triton X-100. The fungicide solutions were applied onto wheat seedlings using an automated booth sprayer to run-off. All sprayed plants were allowed to air dry prior to further handling. All fungicides were evaluated using the aforementioned method for their activity vs. all target diseases, unless stated otherwise. Wheat leaf blotch and brown rust activity were also evaluated using track spray applications, in which case the fungicides were formulated as EC formulations, containing 0.1% Trycol 5941 in the spray solutions. Barley seedlings (variety Harrington) were propagated in soil-less Metro mix, with each pot having 8 to 12 plants, and used in the test when first leaf was fully emerged. Test plants were inoculated by an aqueous spore suspension of Rhyncosporium secalis 24 hr after fungicide treatments. After inoculation the plants were kept in a dew room at 20° C. with 100% relative humidity for 48 hr. The plants were then transferred to a greenhouse set at 20° C. for disease to develop. Fungicide formulation, application and disease assessment on the sprayed leaves followed the procedures as described in the Example A.

Test [9] relates to Uncinula necator. In words: Fungicidal activity: grape powdery mildew (UNCINE). To be noted: 1DP test at 100 ppm. The method, then: Technical grades of materials were dissolved in acetone, which were then mixed with nine volumes of water containing 110 ppm Triton X-100. The fungicide solutions were applied onto wheat seedlings using an automated booth sprayer to run-off. All sprayed plants were allowed to air dry prior to further handling. All fungicides were evaluated using the aforementioned method for their activity vs. all target diseases, unless stated otherwise. Wheat leaf blotch and brown rust activity were also evaluated using track spray applications, in which case the fungicides were formulated as EC formulations, containing 0.1% Trycol 5941 in the spray solutions. Grape seedlings (variety Carignane) were grown in soil-less Metro mix, with one plant per pot, and used in the test when approximately 1 month old. Plants were inoculated 24 hr after fungicide treatment by shaking spores from infected leaves over test plants. Plants were maintained in a greenhouse set at 20° C. until disease was fully developed. Fungicide formulation, application and disease assessment on sprayed leaves followed the procedures as described in the Example A.

SMILES strings stand for the structures.

Take `COc1ccnc(C(=O)NCC(=O)O[C@@H](C)[C@H](C)c2ccc(F)cc2C)c1OC(=O)C(C)C` [Example 197]: in test [1], the “PHAKPA 1DP disease control” value is reported as “D (≤0)” and the “PHAKPA 3DC disease control” value is given as “D (≤0)”.
For `COc1ccnc(C(=O)N[C@H](C(=O)O[C@@H](C)[C@H](C)c2ccc(F)cc2C)C(C)C)c1OC(=O)C(C)C` [Example 210], the “PHAKPA 3DC disease control” value in [1] was “D (≤0)”.
As for `COc1ccnc(C(=O)N[C@H](C(=O)O[C@H](C)[C@H](C)c2ccc(F)cc2C)C(C)C)c1OC(=O)C(C)C` [Example 214], the “PHAKPA 1DP disease control” value in test [1] was “B (≤80)”.
Still for that read-out and setting: under `COc1ccnc(C(=O)N[C@@H](C)C(=O)O[C@H](C)[C@@H](C)c2ccccc2C)c1OC(=O)C(C)C` [Example 225] stands “D (≤0)”.
As for `COc1ccnc(C(=O)N[C@@H](C)C(=O)O[C@H](C)[C@H](C)c2ccccc2C)c1OC(C)=O` [Example 263], the ALTESO disease control result in test [2] was “B (≤80)”. In addition, the CERCBE disease control result in [3] was “B (≤80)”. For the same compound, the COLLLA disease control entry in test [4] is recorded as “D (≤0)”. Besides, in test [5], the LEPTNO disease control result is on record as “B (≤80)”. Further, the PSPECU disease control entry in test [6] was “B (≤80)”. The PYRIOR disease control entry in [7] is “B (≤80)”. In test [8], the RHYNSE disease control entry is on record as “B (≤80)”. Further, the UNCINE disease control entry in [9] is given as “A (>80)”.
With `COc1ccnc(C(=O)N[C@@H](C)C(=O)O[C@@H](C)[C@@H](C)c2ccccc2C)c1OC(C)=O` [Example 264], the ALTESO disease control entry in test [2] is given as “B (≤80)”. Further, the CERCBE disease control result in test [3] is listed as “A (>80)”. The COLLLA disease control entry in test [4] was “B (≤80)”. Further, the LEPTNO disease control entry in test [5] was “A (>80)”. Also, the PSPECU disease control entry in test [6] is given as “B (≤80)”. Besides, in [7], the PYRIOR disease control result was “A (>80)”. In addition, the RHYNSE disease control entry in test [8] is listed as “B (≤80)”. The UNCINE disease control entry in test [9] is “A (>80)”.
For the compound `COc1ccnc(C(=O)N[C@@H](C)C(=O)O[C@@H](C)[C@@H](C)c2ccccc2C)c1OC(=O)C(C)C` [Example 266], the ALTESO disease control entry in test [2] is given as “B (≤80)”. Also, the CERCBE disease control entry in [3] is recorded as “B (≤80)”. Also, the COLLLA disease control result in test [4] is recorded as “D (≤0)”. Moreover, the LEPTNO disease control entry in test [5] is given as “A (>80)”. The PSPECU disease control result in test [6] was “D (≤0)”. Besides, the PYRIOR disease control result in test [7] is given as “A (>80)”. Also, the RHYNSE disease control entry in test [8] was “B (≤80)”. Besides, the UNCINE disease control result in [9] is “A (>80)”.
